Results reported in EPA's ToxValDB 9.5.

Assays:
Rattus norvegicus [1] = conditions: oral, gavage, M/F, Fischer 344
Rattus norvegicus [2] = tested on: Rattus norvegicus
Oryctolagus sp. = conditions: for LD50: acute
Rattus norvegicus [3] = conditions: oral
Rattus norvegicus [4] = conditions: oral; remark: listed apart in the source
Canidae = conditions: chronic, duration: 1 years, oral, diet, Dog Other
[5] = chronic, duration: 103 weeks, oral, gavage, F, Fischer 344
[6] = developmental, duration: 7 days, oral, Wistar
[7] = short-term, duration: 13 days, oral, gavage, Fischer 344
[8] = short-term, duration: 13 days, oral, gavage, M, Fischer 344
[9] = short-term, duration: 16 days, oral, gavage, Fischer 344
[10] = subchronic, duration: 30 days, oral, M, Sprague-Dawley
[11] = subchronic, duration: 30 days, oral, Sprague-Dawley
[12] = developmental, duration: 6 days, oral, ICR
[13] = reproduction developmental, duration: 6 days, oral, F, ICR
[14] = short-term, duration: 13 days, oral, gavage, B6C3F1
[15] = short-term, duration: 16 days, oral, gavage, B6C3F1
[16] = subchronic, duration: 13 weeks, oral, gavage, B6C3F1
[17] = reproduction developmental, duration: 13 days, oral, F, Japanese White
[18] = M, increased serum bilirubin and aspartate aminotransferase, increased urinary volume
[19] = subchronic, M/F, reduced body weight
[20] = subchronic, M, liver/body weight ratio and hepatic microsomal enzyme induction
[21] = M/F, Blood loss into the gastrointestinal tract + coagulation defect in male and female dogs
[22] = M/F, increased wbc, decreased rbc (females), increased alkaline phosphatase (males)

Q: Which results are given for `C=C(C)[C@H]1CC=C(C)CC1` [D-Limonene]?
A: NOEL (Rattus norvegicus [1]; subchronic, duration: 13 weeks, Deaths + Clinical Observation: Rough hair coats Excessive lacrimation + Body Weight Changes: decrease + Histopathology: Kidney-Nephropathy): < 150 mg/kg-day; LOAEL (Rattus norvegicus [2]; [5]): 600 mg/kg-day; NOAEL (Rattus norvegicus [2]; [5]): 300 mg/kg-day; LOAEL (Rattus norvegicus [2]; chronic, duration: 103 weeks, oral, gavage, M, Fischer 344): 75 mg/kg-day; LOAEL (Rattus norvegicus [2]; [6]): 2870 mg/kg-day; NOAEL (Rattus norvegicus [2]; [6]): 591 mg/kg-day; NOAEL (Rattus norvegicus [2]; reproduction developmental, duration: 7 days, oral, F, Wistar): 591 mg/kg-day; LOAEL (Rattus norvegicus [2]; [7]): 600 mg/kg-day; NOAEL (Rattus norvegicus [2]; [7]): 300 mg/kg-day; LOAEL (Rattus norvegicus [2]; [8]): 30 mg/kg-day; NOAEL (Rattus norvegicus [2]; [8]): 5 mg/kg-day; LOAEC (Rattus norvegicus [2]; [9]): 1650 mg/kg-day; LOAEL (Rattus norvegicus [2]; [9]): 3300 mg/kg-day; NOAEL (Rattus norvegicus [2]; [9]): 1650 mg/kg-day; LOAEL (Rattus norvegicus [2]; [10]): 2770 mg/kg-day; NOAEL (Rattus norvegicus [2]; [10]): 1380 mg/kg-day; LOAEL (Rattus norvegicus [2]; [11]): 2770 mg/kg-day; NOAEL (Rattus norvegicus [2]; [11]): 1380 mg/kg-day; NOAEL (Mus musculus; chronic, duration: 103 weeks, oral, gavage, B6C3F1): 500 mg/kg-day; LOAEL (Mus musculus; chronic, duration: 103 weeks, oral, gavage, F, B6C3F1): 1000 mg/kg-day; LOAEL (Mus musculus; [12]): 2360 mg/kg-day; NOAEL (Mus musculus; [12]): 591 mg/kg-day; LOAEL (Mus musculus; [13]): 2360 mg/kg-day; NOAEL (Mus musculus; [13]): 591 mg/kg-day; LOAEL (Mus musculus; [14]): 1000 mg/kg-day; NOAEL (Mus musculus; [14]): 500 mg/kg-day; LOAEC (Mus musculus; [15]): 3300 mg/kg-day; LOAEL (Mus musculus; [15]): 3300 mg/kg-day; NOAEL (Mus musculus; [15]): 1650 mg/kg-day; LOAEL (Mus musculus; [16]): 1000 mg/kg-day; NOAEL (Mus musculus; [16]): 500 mg/kg-day; LOAEL (Oryctolagus sp.; [17]): 500 mg/kg-day; NOAEL (Oryctolagus sp.; [17]): 250 mg/kg-day; NOAEL (Oryctolagus sp.; reproduction developmental, duration: 13 days, oral, Japanese White, generation: F1): > 1000 mg/kg-day

Q: `N#CC#N` [Cyanogen] was tested. Which NOAEL (Rattus norvegicus [3]; chronic, duration: 2 years, diet, Nerve: Myelin degeneration + Thyroid: Effects + Whole body: Decreased weight) did it give?
A: 21.6 mg/kg-day

Q: With `N#Cc1cc(Br)c(O)c(Br)c1` [Bromoxynil] as the compound, how does the NOEL (Rattus norvegicus [3]; chronic, duration: 2 years, diet, None Observed) read?
A: 5 mg/kg-day

Q: And the NOEL (Rattus norvegicus [4]; chronic, duration: 2 years, diet, M/F, no effects)?
A: 5 mg/kg-day

Q: What does the source list for `[Al+3].[P-3]` [Aluminum phosphide]?
A: NOAEL (Rattus norvegicus [3]; chronic, duration: 2 years, diet, Unspecified: Altered clinical parameters + Whole body: Altered weight): 0.43 mg/kg-day; NOAEL (Rattus norvegicus [4]; chronic, M/F, body weight and clinical parameters): 0.043 mg/kg-day

Q: With `COC(=O)c1ccccc1S(=O)(=O)NC(=O)N(C)c1nc(C)nc(OC)n1` [Tribenuron-methyl] as the compound, how does the LEL (Canidae; [18]) read?
A: 8.16 mg/kg-day

Q: And the NOEL (Canidae; [18])?
A: 0.79 mg/kg-day

Q: How did the NOAEL (Rattus norvegicus [1]; short-term, duration: 28 days, Clinical Observation: Head shaking Sneezing Dark nasal discharge + Blood Chemistry: ALP increase, T-Cho increase, T-Bil increase + Absolute …) turn out when `CC(C)(C)C(=O)O` [2,2-Dimethylpropanoic acid] was run?
A: 300 mg/kg-day

Q: What about the LC50 (Rattus norvegicus [2]; acute, inhalation, Wistar) of the same compound?
A: < 4 mg/L

Q: What about the NOAEL (Rattus norvegicus [2]; short-term, duration: 28 days, oral, gavage, Fischer 344) of the same compound?
A: 300 mg/kg-day

Q: And the LC50 (Mus musculus; acute, inhalation, Swiss)?
A: < 4 mg/L

Q: What about the LD50 (Oryctolagus sp.; dermal) of the same compound?
A: 3160 mg/kg

Q: What about the LD50 (Oryctolagus sp.; dermal, semiocclusive) of the same compound?
A: 3160 mg/kg

Q: And the NOAEL (Oryctolagus sp.; repeat dose other, dermal, M)?
A: 300 mg/kg-day

Q: What about the NOAEL (Oryctolagus sp.; repeat dose other, dermal, semiocclusive) of the same compound?
A: 300 mg/kg-day

Q: With `O=c1ccc(=O)[nH][nH]1` [Maleic hydrazide] as the compound, how does the LOAEL (Rattus norvegicus [3]; chronic, duration: 28 months, diet, Kidney: Altered function) read?
A: 500 mg/kg-day

Q: What about the LEL (Rattus norvegicus [4]; chronic, duration: 2 years, diet, M/F, renal dysfunction) of the same compound?
A: 500 mg/kg-day

Q: With `CCN(CC)C(=S)[S-].[Na+]` [Sodium diethyldithiocarbamate] as the compound, how does the NOEL (Rattus norvegicus [3]; subchronic, duration: 90 days, Eye: Cataracts + Whole body: Decreased weight) read?
A: 30 mg/kg-day

Q: What about the LOAEL (Rattus norvegicus [4]; chronic, M/F, Reduced body weight and cataracts in females) of the same compound?
A: 62.5 mg/kg-day

Q: And the LOAEL (Rattus norvegicus [4]; [19])?
A: 100 mg/kg-day

Q: And the NOEL (Rattus norvegicus [4]; [19])?
A: 30 mg/kg-day

Q: Which NOAEL (Rattus norvegicus [3]; subchronic, duration: 45 days, gavage, Liver: Altered enzyme activities + Liver: Increased relative weight) does the source give for `Brc1ccc(Br)cc1` [1,4-Dibromobenzene] here?
A: 10 mg/kg-day

Q: What about the LOAEL (Rattus norvegicus [4]; [20]) of the same compound?
A: 20 mg/kg-day

Q: What about the NOAEL (Rattus norvegicus [4]; [20]) of the same compound?
A: 10 mg/kg-day

Q: Which LOAEL (Canidae; [21]) does the source give for `CC(C)N1C(=O)c2ccccc2NS1(=O)=O` [Bentazone] here?
A: 13.1 mg/kg-day

Q: And the NOAEL (Canidae; [21])?
A: 3.2 mg/kg-day

Q: What does the source list for `CCOC(=O)c1ccccc1S(=O)(=O)NC(=O)Nc1nc(Cl)cc(OC)n1` [Chlorimuron-ethyl]?
A: LEL (Canidae; [22]): 37.5 mg/kg-day; NOEL (Canidae; [22]): 6.25 mg/kg-day

Q: For `[O]=[Sb](=[O])[O][Sb](=[O])=[O]` [Antimony pentoxide], which LOAEL (Rattus norvegicus [3]; chronic, drinking water, blood: Altered chemistries + Whole body: Increased mortality) is on record?
A: 0.46 mg/kg-day
